Assays:
[1] = tested on: C57BL/6 mice; experiment: Retinal safety after intraocular injection (ERG, histology, RGC count); assay type: in vivo, mouse
Protocol: To reduce the risk of systemic side effects while optimizing the delivery of drugs to retinal tissue, therapies for ocular vascular disease are often administered by intravitreal injection. Therefore, it was assessed whether […] causes retinal toxicity following intraocular administration. To this end, ERGs up to 5 weeks were examined following a single intraocular injection of increasing doses (70, 140, 210, and 350 ng) of 32-134D.
To assess whether a higher dose of 32-134D could facilitate less frequent administration, the safety of higher doses of intraocular administration of 32-134D was assessed. To this end, ERGs up to 2 weeks following a single intraocular injection of high doses (500 and 1,000 ng) of 32-134D were examined.
Intraocular injections: Intravitreal injections were performed with a PLI-100A Pico-liter Microinjector (Warner Instruments, Harvard Bioscience) using pulled-glass micropipettes. Each micropipette was calibrated to deliver a 1 μl volume on depression of a foot switch. The mice were anesthetized with a ketamine (100 mg/kg) and xylazine (5 mg/kg) mixture, and under a dissecting microscope, the sharpened tip of the micropipette was passed through the sclera just posterior to the limbus into the vitreous cavity and the foot switch was depressed, which caused fluid to penetrate into the vitreous space. Test compound was injected into the vitreous cavity in OIR and STZ mice for vascular permeability test, retinal vasculature and lysates for WB and qPCR analysis.
Flash scotopic ERGs: All procedures were performed under dim red light. Mice were dark adapted overnight, anesthetized with ketamine (50 mg/kg) and xylazine (5 mg/kg) and pupils were dilated with a topical drop of tropicamide (1%). Scotopic ERG responses were measured using the Celeris ERG stimulator (Diagnosys, Lowell, MA) at flash intensities of 0.025, 0.25, 2.5, 7.96, and 79.06 cd/s/m2. ERGs were measured simultaneously from both eyes with a ground electrode placed into the forehead between the eyes and a reference electrode into the hip.

[2] = tested on: HIF target genes; experiment: RT-qPCR of HIF target gene expression in Hep3B cells; assay type: cell-based, human
Protocol: Based on hit compound 11-88, a number of analogs were prepared in which either halogen substitutions to the indole groups were altered or the central thiazole was replaced by imidazole, isoxazole, oxadiazole, oxazole, pyrazinone, pyridazine, pyrazine, pyrazole, pyridine, thiadiazole, triazine, or triazole. […] The bis-bromoindole thiazole 32-134D and the bis-indole thiadiazole 33-063 (FIGS. 1B and 1C) were further characterized with respect to endogenous HIF target gene expression in Hep3B cells. […] For comparison, we tested the effect of PT2385, which inhibited EPO, NDRG1, ANGPTL4, and VEGFA expression but had no effect on CA9, which is consistent with its HIF-2-selective mechanism of action (Wallace E M et al., Cancer Res. 2016; 76(18):5491-5500). None of the compounds had any effect on RPL13A expression, which is neither hypoxia-induced nor HIF-regulated (FIG. 3).
Human Hep3B and mouse Hepa1-6 cells were purchased from ATCC and grown in high-glucose (4.5 mg/ml) Dulbecco's modified Eagle's medium supplemented with 10% (vol/vol) fetal bovine serum and […] at 37° C. in a 5% CO2/95% air incubator (20% O2). Human cell line identity was authenticated by analysis of short tandem repeats, and all cell lines were maintained mycoplasma free, using PCR-based assays conducted at the Johns Hopkins University Genetic Resources Core Facility. Cells were subjected to hypoxia in a controlled atmosphere chamber (PLAS Labs) with ambient gas mixture containing 1% O2 and 5% CO2.
RNA was extracted using TRIzol Reagent (ThermoFisher). Quantitative Real-time PCR was conducted using SYBR Green PCR Master Mix (BioRad) and reactions were run using the BioRad thermal cycler (BioRad). The mRNA expression of target genes was normalized to the expression of 18S rRNA and the fold change (FC) was calculated based on the threshold cycle (Ct) as
FC=2^−Δ(ΔCt) where ΔCt=Cttarget gene−Ct18S rRNA and Δ(ΔCt)=ΔCttreatment−ΔCtcontrol.

[3] = tested on: HIF transcriptional activity; experiment: Luciferase reporter assay (FLuc/RLuc) in hypoxic Hep3B-c1 cells; assay type: cell-based; settings: Homo sapiens, FLuc/RLuc ratio, 1% O2, 24 hours
Protocol: The NCI CellMiner database contains expression data on 25,698 mRNAs in 60 human cancer cell lines that were exposed to 21,770 chemical compounds (Reinhold W C, et. al., Cancer Res. 2012; 72(14):3499-3511). The CellMiner database was interrogated for compounds that induced changes in gene expression highly correlated with those induced by acriflavine, but would be structurally unrelated to acriflavine. Compounds that satisfied these criteria were analyzed in Hep3B-c1 cells (Zhang H. et. al., Proc Natl Acad Sci USA. 2008; 105(50):19579-19586), which are stably transfected with: HIF dependent reporter plasmid p2.1, in which firefly luciferase (FLuc) coding sequences are located downstream from a hypoxia response element (HRE) and a basal SV40 promoter; and control reporter pSVR, in which Renilla luciferase (RLuc) coding sequences are downstream of the basal SV40 promoter only (FIG. 1A).
Hep3B-c1 cells (Zhang 2008), which are stably co-transfected with reporter plasmids p2.1, a hypoxia-inducible firefly luciferase reporter gene containing a hypoxia response element (HRE), and pSVR, a constitutively expressed Renilla luciferase reporter gene, were seeded on 24-well plates. Cells were treated with compounds the following day and exposed to 20% or 1% O2 for 24 hours. For transient transfection, cells were seeded, transfected with the listed plasmids and compounds, and exposed to 20% or 1% O2 for 24 hours. FLuc/RLuc ratios were determined using the Dual Luciferase Reporter Assay System (Promega) and the VICTOR Nivo plate reader (PerkinElmer).

[4] = tested on: VEGF and ANGPTL4 mRNA; experiment: mRNA expression in hypoxic MIO-M1 cells; assay type: cell-based, human; settings: hypoxia, 10 μM
Protocol: It has previously been reported that the cells in the inner nuclear layer of the retina that express VEGF in response to hypoxia/ischemia are Müller glial cells (X. Xin et al., Proc Natl Acad Sci USA 110, E3425-3434 (2013)). […] The effects of 32-134D on HIF-1α accumulation persisted up to 16 hours after treatment of cultured cells (FIG. 27B).
Reverse transcription and quantitative real-time PCR: Total RNA was isolated from cultured cells or retinas with PureLink™ RNA Mini Kit (Invitrogen #12183025), and cDNA was prepared with MuLV Reverse Transcriptase (Applied Biosystems). Quantitative real-time PCR was performed with Power SYBR Green PCR Master Mix (Applied Biosystems) and MyiQ Real-Time PCR Detection System (Bio-Rad). Normalization was done using cyclophilin A for mouse tissue and human cell lines.

`Brc1ccc2c(-c3csc(-c4c[nH]c5c(Br)cccc45)n3)c[nH]c2c1` [Compound 32-134D, 4-(6-bromo-1H-indol-3-yl)-2-(7-bromo-1H-indol-3-yl)thiazole] was tested, and the “retinal histology including GCL” value ([1]; 35 days after intraocular injection of up to 350 ng) was “normal histology”, the “number of RGCs on retinal flat mounts” value ([1]; highest doses tested (210 or 350 ng), 35 days) was “unaffected” and the “ERG evidence of retina toxicity” value ([1]; single intraocular injection 70, 140, 210, 350 ng, up to 5 weeks) was “no ERG evidence of retina toxicity”. For the same molecule, the “ERG evidence of retina toxicity” value ([1]; single intraocular injection 500 and 1,000 ng, up to 2 weeks) was “no ERG evidence of retina toxicity”, the “hypoxia-induced expression of HIF target genes CA9, ANGPTL4, VEGFA, NDRG1 and EPO” value [2] was “inhibited” and the IC50 [3] was 2.5 µM. The “mRNA expression of VEGF and ANGPTL4” value [4] was “potent inhibition”.
